Experimental data: PubChem BioAssay AID248 (DTP/NCI, 2004)
Inconclusive results and toxic doses are left out. Cut-off read from the data, not from the text of the source: active = T/C of 150% or more; inactive = T/C below 125%.

Test system: L1210 leukemia ip in BDF1 mice, survival T/C
Assay: NCI In Vivo Anticancer Drug Screen. Data for tumor model L1210 Leukemia (intraperitoneal) in B6D2F1 (BDF1) mice
Conditions: endpoint: mean survival time, higher = longer survival
Summary of the method: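 Read-out is survival time, reported as the treated-group measurement over the vehicle-control measurement.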

[1] = dose: 100.0 mg/kg/injection, schedule: Q01DX009 (ip), vehicle: Klucel (hydroxypropylcellulose) (HPC)
[2] = dose: 200.0 mg/kg/injection, schedule: Q01DX009 (ip), vehicle: Klucel (hydroxypropylcellulose) (HPC)
[3] = dose: 400.0 mg/kg/injection, schedule: Q01DX009 (ip), vehicle: Klucel (hydroxypropylcellulose) (HPC)
[4] = dose: 100.0 mg/kg/injection, schedule: Q04DX002 (ip), vehicle: saline with Tween-80
[5] = dose: 200.0 mg/kg/injection, schedule: Q04DX002 (ip), vehicle: saline with Tween-80
[6] = dose: 400.0 mg/kg/injection, schedule: Q04DX002 (ip), vehicle: saline with Tween-80
[7] = dose: 100.0 mg/kg/injection, schedule: Q04DX003 (ip), vehicle: saline
[8] = dose: 200.0 mg/kg/injection, schedule: Q04DX003 (ip), vehicle: saline
[9] = dose: 50.0 mg/kg/injection, schedule: Q01DX009 (ip), vehicle: saline
[10] = dose: 100.0 mg/kg/injection, schedule: Q01DX001 (ip), vehicle: saline
[11] = dose: 200.0 mg/kg/injection, schedule: Q01DX001 (ip), vehicle: saline
[12] = dose: 400.0 mg/kg/injection, schedule: Q01DX001 (ip), vehicle: saline

Measured: T/C

O=C(Nc1ccc(O)cc1)Nc1ccc(O)cc1
inactive: dose: 37.5 mg/kg/injection, schedule: Q01DX Z (ip), vehicle: carboxymethylcellulose (CMC) 103 % of control | dose: 53.0 mg/kg/injection, schedule: Q01DX Z (ip), vehicle: carboxymethylcellulose (CMC) 92 % of control | dose: 53.0 mg/kg/injection, schedule: Q01DX Z (ip), vehicle: other 105 % of control | dose: 75.0 mg/kg/injection, schedule: Q01DX Z (ip), vehicle: carboxymethylcellulose (CMC) 115 % of control | dose: 80.0 mg/kg/injection, schedule: Q01DX Z (ip), vehicle: carboxymethylcellulose (CMC) 93 % of control | dose: 80.0 mg/kg/injection, schedule: Q01DX Z (ip), vehicle: other 102 % of control | dose: 120.0 mg/kg/injection, schedule: Q01DX Z (ip), vehicle: carboxymethylcellulose (CMC) 92 % of control | dose: 120.0 mg/kg/injection, schedule: Q01DX Z (ip), vehicle: other 103 % of control | dose: 150.0 mg/kg/injection, schedule: Q01DX Z (ip), vehicle: carboxymethylcellulose (CMC) 103 % of control | dose: 180.0 mg/kg/injection, schedule: Q01DX Z (ip), vehicle: carboxymethylcellulose (CMC) 89 % of control | dose: 180.0 mg/kg/injection, schedule: Q01DX Z (ip), vehicle: other 102 % of control | dose: 270.0 mg/kg/injection, schedule: Q01DX Z (ip), vehicle: other 103 % of control | dose: 300.0 mg/kg/injection, schedule: Q01DX Z (ip), vehicle: carboxymethylcellulose (CMC) 98 % of control | dose: 404.0 mg/kg/injection, schedule: Q01DX Z (ip), vehicle: other 105 % of control

Cc1ccccc1OS(=O)(=O)c1cccc([N+](=O)[O-])c1
inactive: dose: 100.0 mg/kg/injection, schedule: Q01DX009 (ip), vehicle: saline with Tween-80 93 % of control | dose: 200.0 mg/kg/injection, schedule: Q01DX009 (ip), vehicle: saline with Tween-80 92 % of control | dose: 400.0 mg/kg/injection, schedule: Q01DX009 (ip), vehicle: saline with Tween-80 90 % of control

O=C(/C=C/c1ccccc1)Nc1ccccc1C(F)(F)F
inactive: [1] 98 % of control | [2] 104 % of control | [3] 101 % of control

O=[N+]([O-])/C=C/c1ccc2ccccc2c1
inactive: dose: 12.5 mg/kg/injection, schedule: Q01DX009 (ip), vehicle: carboxymethylcellulose (CMC) 104 % of control | dose: 25.0 mg/kg/injection, schedule: Q01DX009 (ip), vehicle: carboxymethylcellulose (CMC) 101 % of control | dose: 50.0 mg/kg/injection, schedule: Q01DX009 (ip), vehicle: Klucel (hydroxypropylcellulose) (HPC) 107 % of control | dose: 50.0 mg/kg/injection, schedule: Q01DX009 (ip), vehicle: carboxymethylcellulose (CMC) 100 % of control | dose: 100.0 mg/kg/injection, schedule: Q01DX001 (ip), vehicle: other 100 % of control | [1] 104 % of control | dose: 100.0 mg/kg/injection, schedule: Q01DX009 (ip), vehicle: carboxymethylcellulose (CMC) 101 % of control | dose: 200.0 mg/kg/injection, schedule: Q01DX001 (ip), vehicle: other 91 % of control | [2] 93 % of control | dose: 400.0 mg/kg/injection, schedule: Q01DX001 (ip), vehicle: other 96 % of control

O=C(Oc1c(Cl)cc([N+](=O)[O-])cc1[N+](=O)[O-])Sc1ccccc1
inactive: [4] 103 % of control | [5] 100 % of control | [6] 100 % of control

O=S(=O)(CCCS(=O)(=O)Nc1ccccc1)Nc1ccccc1
inactive: dose: 100.0 mg/kg/injection, schedule: Q01DX001 (ip), vehicle: saline with Tween-80 103 % of control | dose: 200.0 mg/kg/injection, schedule: Q01DX001 (ip), vehicle: saline with Tween-80 97 % of control | dose: 400.0 mg/kg/injection, schedule: Q01DX001 (ip), vehicle: saline with Tween-80 90 % of control

O=C1OC(c2cccc(Cl)c2)=N/C1=C\c1cccc2ccccc12
inactive: [1] 90 % of control | [2] 90 % of control | [3] 96 % of control

CN(C)Cc1cc(Cl)cc(CN(C)C)c1O
inactive: [4] 104 % of control | [7] 99 % of control | [8] 104 % of control

O=C(O)c1ccc(C(=O)O)c(O)c1O
inactive: [9] 120 % of control | [10] 100 % of control | dose: 100.0 mg/kg/injection, schedule: Q01DX009 (ip), vehicle: saline 105 % of control | [7] 89 % of control | [11] 92 % of control | dose: 200.0 mg/kg/injection, schedule: Q01DX009 (ip), vehicle: saline 116 % of control | [8] 96 % of control | [12] 94 % of control

O=C(O)/C=C\C(Cl)(Cl)Cl
inactive: [4] 97 % of control | [5] 93 % of control

CC(C)c1ccc(N2P(=O)(N(C)C)N(c3ccc(C(C)C)cc3)P2(=O)N(C)C)cc1 (stereo not given)
inactive: [1] 95 % of control | [2] 92 % of control | [3] 98 % of control

CC(=O)OCC1OC(SSC2OC(COC(C)=O)C(OC(C)=O)C(OC(C)=O)C2OC(C)=O)C(OC(C)=O)C(OC(C)=O)C1OC(C)=O (stereo not given)
inactive: [10] 93 % of control | [11] 95 % of control | [12] 89 % of control

COC1C(O)C(C)OC(O[C@@H]2C[C@H]3CC[C@@H]4[C@H](CC[C@]5(C)[C@@H](C6=CC(=O)OC6)CC[C@]45O)[C@@]3(C)[C@H](O)C2)C1O (stereo not given in full)
inactive: dose: 0.63 mg/kg/injection, schedule: Q01DX001 (ip), vehicle: saline 103 % of control | dose: 1.25 mg/kg/injection, schedule: Q01DX001 (ip), vehicle: saline 101 % of control | dose: 2.5 mg/kg/injection, schedule: Q01DX001 (ip), vehicle: saline 97 % of control | dose: 5.0 mg/kg/injection, schedule: Q01DX001 (ip), vehicle: saline 94 % of control | dose: 10.0 mg/kg/injection, schedule: Q01DX001 (ip), vehicle: saline 103 % of control | dose: 20.0 mg/kg/injection, schedule: Q01DX001 (ip), vehicle: saline 106 % of control | dose: 40.0 mg/kg/injection, schedule: Q01DX001 (ip), vehicle: saline 111 % of control | dose: 80.0 mg/kg/injection, schedule: Q01DX001 (ip), vehicle: saline 101 % of control

CSc1ncc2n1C=CN(C(=O)c1ccc([N+](=O)[O-])cc1)C2O (stereo not given)
inactive: dose: 25.0 mg/kg/injection, schedule: Q01DX009 (ip), vehicle: saline 89 % of control | dose: 25.0 mg/kg/injection, schedule: Q04DX003 (ip), vehicle: saline 106 % of control | [9] 89 % of control | dose: 50.0 mg/kg/injection, schedule: Q04DX003 (ip), vehicle: saline 111 % of control | [7] 102 % of control

CC(C)(Cl)CCC1=C(Cl)C(=O)c2ccccc2C1=O
inactive: dose: 5.0 mg/kg/injection, schedule: Q01DX001 (ip), vehicle: water 98 % of control | dose: 10.0 mg/kg/injection, schedule: Q01DX001 (ip), vehicle: water 98 % of control

CS(=O)(=O)Oc1c(Cl)cc(Cl)c2ccccc12
inactive: [10] 98 % of control | [11] 92 % of control | [12] 101 % of control

CCCCCCOC(=O)c1cccc2c1-c1ccccc1C2=O
inactive: dose: 100.0 mg/kg/injection, schedule: Q01DX001 (ip), vehicle: carboxymethylcellulose (CMC) 93 % of control | dose: 200.0 mg/kg/injection, schedule: Q01DX001 (ip), vehicle: carboxymethylcellulose (CMC) 93 % of control | dose: 400.0 mg/kg/injection, schedule: Q01DX001 (ip), vehicle: carboxymethylcellulose (CMC) 98 % of control

CSc1ccc(OC(=O)Nc2cc([N+](=O)[O-])ccc2F)cc1C
inactive: [4] 89 % of control | dose: 100.0 mg/kg/injection, schedule: Q04DX002 (ip), vehicle: saline 92 % of control | [5] 93 % of control | dose: 200.0 mg/kg/injection, schedule: Q04DX002 (ip), vehicle: saline 110 % of control | [6] 91 % of control | dose: 800.0 mg/kg/injection, schedule: Q04DX002 (ip), vehicle: saline with Tween-80 93 % of control

CC(=O)Oc1cc(C)c(OC(C)=O)c2ccccc12
inactive: [1] 96 % of control | dose: 100.0 mg/kg/injection, schedule: Q04DX003 (ip), vehicle: Klucel (hydroxypropylcellulose) (HPC) 96 % of control | [2] 93 % of control | dose: 200.0 mg/kg/injection, schedule: Q04DX003 (ip), vehicle: Klucel (hydroxypropylcellulose) (HPC) 103 % of control | dose: 400.0 mg/kg/injection, schedule: Q04DX003 (ip), vehicle: Klucel (hydroxypropylcellulose) (HPC) 96 % of control
